“Also recorded” adds a separate entry of the source.
Assays:
[1] = test system: layer V pyramidal neurons; test: Spike-timing-dependent LTP, whole-cell recordings from slices of treated adult mice; type: in vivo
Protocol: (§1) All mice were treated with either WYE125132 or vehicle for a period of 2 weeks after which the animals were euthanized and thalamocortical slices were prepared. Briefly, animals were anesthetized, decapitated and the brain quickly placed into ice-cold dissection buffer containing (in mM): 75 sucrose, 87 NaCl, 2.5 KCl, 1.25 NaH2PO4, 0.5 CaCl2, 7 MgCl2 6H2O, 25 NaHCO3, 10 dextrose, bubbled with 95% O2/5% CO2 (pH 7.4). Slices (400 μm) were prepared with a vibratome (Leica, VT1200S), placed in 33-35° C. for artificial cerebrospinal fluid (ACSF, in mM: 124 NaCl, 2.5 KCl, 1.25 NaH2PO4, 2.5 CaCl2, 1.5 MgSO4 7H2O, 26 NaHCO3, and 10 dextrose) for <30 min; then returned to room temperature >1 hr before use. Slices were then transferred to the recording chamber and perfused (2.0-2.5 ml min-1) with oxygenated ACSF at 33-35° C. and given 30 min to stabilize. Somatic whole-cell recordings were made from layer 5 pyramidal cells in voltage and current clamp mode with a Multiclamp 700B amplifier (Molecular Devices). Selection was based on morphology and electrophysiological criteria. Patch pipettes (3-8MΩ) contained a current clamp solution. Data were filtered at 2 kHz, digitized at 10 kHz and analyzed with Clampfit. Cells were excluded from analysis if Ri or Rs changed by >25% over the course of the recording. Excitatory post-synaptic currents or potentials (EPSCs/Ps) were evoked by extracellular stimulation (0.01-1 ms, 1-10V) with a 4×1 array of electrodes placed in layer 4, and straddling the patched layer 5 neuron. Across mice we compared spontaneous and evoked inhibitory responses by clamping the membrane potential of the cell to sub-threshold levels. Furthermore, we compared inhibition generated by each stimulation electrode, to the corresponding amount of excitation when the cell was held at −80 mV. Lastly, we tested Spike-Timing Dependent Plasticity (STDP).
(§2) euthanized. For the electrophysiology and western blot rescue experiments, adult mice were gavaged for 14 consecutive days after which they were euthanized.
Whole cell recordings were made from layer V pyramidal cells of the temporal cortex. Focal extracellular stimulation was applied and excitatory and inhibitory currents were measured across various stimulation intensities to assess E:I balance. For plasticity experiments, extracellular stimulation was paired with postsynaptic action potentials (elicited by current injection via the recording electrode) less than 10 ms after the onset of the EPSP 60 times at 0.1 hz. Baseline strength was compared to synaptic strength 6-15 mins after spike pairing.
We investigated whether we could reverse the impairment in neuronal network activity and plasticity by targeting the overactivation of the mTOR pathway with WYE125132. […]

[2] = test system: glutamate receptor subunits GluR1, GluR2, NR1, NR2A, NR2B and mGluR5; test: Immunoblot of glutamate receptor subunits in PFC homogenates after treatment; type: in vivo, mice; conditions: for expression of glutamate receptor subunits altered in mutants: Cntnap2-/- and Cntnap2+/- mice aged 5-8 months
Protocol: as §2
Western blot analysis of mouse brain tissue and immunocytochemistry in human brain tissue was performed using standard methods.
We also evaluated whether treatment with WYE126132 reverses the alterations in the expression of the glutamate receptor subunits found in Cntnap2 mutant mice. Mice aged 5-8 months were treated for consecutive days.

Cntnap2 mutant mice = test: Social interaction test (10-minute interval) and grooming; type: in vivo
Protocol: Cntnap2 mutant and WT mice were obtained from heterozygous crossings and were born with the expected Mendelian frequencies. The three obtained genotypes were housed together. Mice were treated with p.o. gavaging once per day with either WYE125132 (10 mg/kg) or vehicle. All procedures involving animals were performed in accordance with the Columbia University/New York State Psychiatric Institute animal research committee.
WYE125132 (Chemscene) was administered by a daily p.o. gavaging in a volume of 10 ml/kg. For all behavioral experiments, dams were treated from PO to P12 after which individual pups were gavaged on a daily basis going forward. Mice also received drug treatment on the days of testing, at least 1 hour prior the experiment. For the two-photon and cell size quantitation studies, mice were gavaged from P12 to p35, after they were
Mice were marked with ear tagging. Experimenters were blinded to the genotype during testing. Behavioral tests were performed in the New York State Psychiatric Institute behavioral test core facility.
Detailed measurements of interaction between pairs of mice placed together in standard cages provide insights into reciprocal social interactions (Silverman et al., 2010). We examined (i) whether juvenile Cntnap2 mutant mice display decreased social interaction over a 10-minute interval and (ii) whether mutant mice have reduced tendency to approach novel social stimuli, as evidenced by social inhibition in the first minute of the tested interval (Curley et al., 2009). The first minute of this social interaction paradigm represents the phase when preference for social novelty is normally established. There were significant differences between genotypes in the amount of time spent on social investigation of the stimulus animal both in the first minute of the test (One-Way ANOVA F2,38=5.01, P<0.05; FIG. 15A) as well as over the entire 10-minute test (F2,38=3.27, P<0.05; FIG. 15A). Both Cntnap2^+/− and Cntnap2^−/− mice investigated the stimulus mouse for less time than their wild-type (WT) littermates (Dunnett post-hoc tests, all P<0.05).
Mutant mice were treated with WYE125132 or vehicle by daily gavaging.

[3] = test system: layer V pyramidal neurons; test: Excitation-inhibition correlation, whole-cell recordings from slices of treated adult mice; type: in vivo
Protocol: as §1, §2
Whole cell recordings were made from layer V pyramidal cells of the temporal cortex. Focal extracellular stimulation was applied and excitatory and inhibitory currents were measured across various stimulation intensities to assess E:I balance. […]
recorded cell. […] We assessed this relation over multiple inputs onto the recorded postsynaptic neuron from different regions of the cortical brain slice, by systematically varying the intensity of extracellular stimulation, such that higher intensities evoke responses from larger subpopulations of presynaptic inputs (House et al., 2011). […]

[4] = Caspr2-/- / Cntnap2 mutant mice treated with WYE125132 for 2 weeks
[5] = WT littermates treated with WYE125132 for 2 weeks

SMILES: CNC(=O)Nc1ccc(-c2nc(N3CC4CCC(C3)O4)c3cnn(C4CCC5(CC4)OCCO5)c3n2)cc1 [WYE125132]
- LTP induction (in words) [1, 4]: robust LTP; also recorded: successfully induced LTP
- LTP induction (in words) [1, 5]: robust LTP
- synaptic modification after spike pairing (example recording) ([1]; WYE125132-treated Cntnap2-/- mouse, single example whole-cell recording): 35.1 % increase
- synaptic modification after spike pairing (LTP summary) ([1]; WYE125132-treated Cntnap2-/- mutant mice, n=8, 6-15 min after pairing, error s.e.m.): 45.4±16.4 % increase
- expression of glutamate receptor subunits altered in mutants [2]: entirely reversed; also recorded: complete normalization of all glutamate receptor subunits
- expression of glutamate receptor subunits altered in mutants ([2]; listed as WYE126132): complete normalization of all glutamate receptor subunits
- expression of glutamate receptor subunits in WT animals ([2]; WT mice): no effects
- number (total frequency) of social interactions over the whole 10-minute interval (Cntnap2 mutant mice; Cntnap2+/- mice, daily gavage, P<0.05): rescued; also recorded: corrects
- social interaction deficits in the first minute of testing (Cntnap2 mutant mice; Cntnap2+/- mice, daily gavage, versus vehicle, P<0.01): reversal of the social interaction deficits; also recorded: corrects the social interaction deficits
- maximum grooming bout duration (Cntnap2 mutant mice; Cntnap2+/- mutant mice, WYE125132 versus vehicle, P<0.05): increased significantly
- time spent sniffing the stimulus mouse in the very first part of the test (Cntnap2 mutant mice; Cntnap2 mutant mice): increases the time
- time spent sniffing the stimulus mouse in the very first part of the test (Cntnap2 mutant mice; WT littermates): no such effect
- correlation between excitation and inhibition (in words) [3, 4]: high correlation between excitation and inhibition
- correlation between excitation and inhibition (in words) [3, 5]: high correlation between excitation and inhibition
- linear correlation coefficient r between excitation and inhibition (representative recording) ([3]; WYE125132-treated Cntnap2-/- mouse, single representative recording): 0.72
- linear correlation coefficient r between excitation and inhibition (summary) ([3]; WYE125132-treated Cntnap2-/- mutant mice, 14 days gavage, n=12, error s.e.m.): 0.43±0.08

From patent publication US20160089377A1, “THERAPEUTIC TARGETING OF THE MTOR PATHWAY IN NEURODEVELOPMENTAL AND NEUROPSYCHIATRIC DISEASE” (THE TRUSTEES OF COLUMBIA UNIVERISTY IN THE CITY OF NEW YORK, priority 2013, published 2016)
